This is an account of results in US20160067208A1, “ADHESION PREVENTING AGENT” (FARNEX INCORPORATED, priority 2013, published 2016).

Common to all, as to assay type: physicochemical
Series [1] in a line: Viscosity of the compound itself (Gemini II, Malvern). Particulars: 25° C., at shear velocity of 92 1/s. The procedure: In addition, the amphipathic compound to be used for the adhesion preventing agent of the present invention has low viscosity in itself. Specifically, the amphipathic compound to be used for the adhesion preventing agent of the present invention has a viscosity of preferably 15.0 Pa·s or less, more preferably 11.0 Pa·s or less, and further preferably 6.0 Pa·s or less as measured at 25° C. in itself. The viscosity can be measured using, for example, a viscosity and viscoelasticity measuring apparatus (Gemini II, Malvern Instruments Ltd.) at 25° C.
The viscosity of each of the compounds described in the Examples 1-7 was measured using a viscosity/viscoelasticity measuring instrument (Gemini II, Malvern) at the temperature of 25° C.

Series [2] can be described thus: SAXS analysis of compound/water system (liquid crystal formation). Conditions: compound/water system gel, 50% by mass in water-excess condition, room temperature (25° C.). The source says: Whether or not a liquid crystal structure has a cubic lattice may be determined by a small-angle X-ray scattering (SAXS) method, for the purpose of confirming liquid crystal formation. First, an amphipathic compound/water system sample with a predetermined concentration can be filled into an X-ray capillary tube made of quartz, for example, and the capillary tube is sealed with an oxy-fuel burner, and subjected to SAXS assay.
Mono-O-(5,9,13-trimethyltetradeca-4,8,12-trienoyl)glycerol synthesized in Example 1 and pure water were introduced into a mixing device at the concentration of 50% by mass of mono-O-(5,9,13-trimethyltetradeca-4,8,12-trienoyl)glycerol (in water-excess condition), and they were mixed at room temperature (25° C.) and left for 24 hours to obtain a homogeneous mixture. Then the separated water was removed. Thus, a sample of mono-O-(5,9,13-trimethyltetradeca-4,8,12-trienoyl)glycerol/water system was obtained as a white turbid to colorless transparent gel composition in appearance (it was referred to below as the gel sample).
Subsequently, the gel sample was analyzed by small-angle x-ray scattering (SAXS). The NANO-Viewer nano-scale X-ray structure analysis equipment (Rigaku) was used for SAXS analysis, which was performed by X-ray irradiation at room temperature (25° C.), 40 kV, 50 mA, wavelength λ=0.1542 nm (Cu-Kα).
Each of the compounds synthesized in Example 32, 33, 43, 45, 49, and 50 and water were homogeneously mixed in accordance with the same procedure as in Example 9 to obtain a sample of each compound/water system being a gel in appearance. SAXS analysis of these gel samples was performed in the same manner as in Example 9. […]

Series [3] is described as follows: Shear viscosity of liquid crystal gels. Conditions: gel prepared by addition of water, 25° C. How it is done:
The viscosity was measured for the gels prepared by addition of water to the compounds synthesized in Examples 1, 4, and 5. Specifically, for the gel samples obtained by mixing homogeneously according to the same procedure as in Example 9, the shear viscosity was measured at a temperature of 25° C., using a viscosity and viscoelasticity measuring apparatus (Gemini II, Malvern Instruments Ltd.; cone plate φ25, cone angle 1°).
The viscosity was measured for the gels prepared by addition of water to the compounds synthesized in Examples 45 and 50, and C17 glycerin ester synthesized in Example 13. Specifically, for the gel samples obtained by mixing homogeneously according to the same procedure as in Example 9, the shear viscosity was measured at a temperature of 25° C., using a viscosity and viscoelasticity measuring apparatus (Gemini II, Malvern Instruments Ltd.; cone plate φ25, cone angle 1°).

A short description of series [4]: Preparability and temperature stability of comparative formulations. Conditions: 0.65 cs dimethicone (GMO: 1.00 g in 2.33 g). The procedure:
2.33 g of 0.65 cs dimethicone (Dow Corning Q7-9180 Silocon Fluid 0.65 CST) was added to 1.00 g of GMO (Rikemal XO-100L, Riken Vitamin Co., Ltd.), followed by stirring to prepare a solution.
Additionally, an o/w dispersion of GMO having the same composition as test sample 18 as described above was prepared, and stored at a refrigerated temperature (7° C.). […] Thus, it is shown that the o/w dispersion of GMO has low temperature stability.
In accordance with Example 14 described in JP Patent Publication No. 2008-528463A, GDO (4.30 g), SPC (Lecinol S-10E, 2.90 g), P80 (1.80 g), and ethanol (1.00 g) were mixed to prepare a liquid crystal precursor composition (GDO/SPC/P80/EtOH=43:29:18:10).
6 mL of distilled water was added to 1.388 g of the liquid crystal precursor composition, followed by stirring for 1 hour to prepare test sample 6 (GDO/SPC/P80/EtOH/water=[…]:81.2).
Thus, it was impossible to prepare a lipid/dimethicone preparation, unlike test samples 13, 14, 21 and 23. […] It was considered that this was due to high viscosity of the sample.

On to `CC(C)=CCC/C(C)=C/CC/C(C)=C/CCC(C)=CCCC(=O)OCC(O)C(O)CO` (stereo not shown) [Example 5, mono-O-(5,9,13,17-tetramethyloctadeca-4,8,12,16-tetraenoyl)erythritol], for which the results for the Viscosity in series [1], in series [3] (shear velocity 12 1/s) and in series [3] (shear velocity 100.8 1/s) were 5.8 Pa·s, 333 Pas · sec and 17 Pas · sec, respectively. Further, in series [2], the “liquid crystal structure (SAXS peak value ratio)” value is “cubic liquid crystal that belongs to the crystallographic space group Pn3m”.

Turning to `CC(C)=CCC/C(C)=C/CC/C(C)=C/CCC(C)=CCOCC(O)C(O)CO` (stereo not shown) [Example 45, mono-O-(3,7,11,15-tetramethylhexadeca-2,6,10,14-tetraenyl)erythritol], the Viscosity worked out at 1.9 Pa·s in series [1], 314 Pas · sec in series [3] (shear velocity 10 1/s) and 4.3 Pas · sec in series [3] (shear velocity 105 1/s). The “liquid crystal structure (SAXS peak value ratio)” value in series [2] is given as “cubic liquid crystals that belong to the crystallographic space group Pn3m”.

`CC(C)=CCC/C(C)=C/CC/C(C)=C/CCC(C)=CCCCOCC(CO)(CO)CO` [Example 50, mono-O-(5,9,13,17-tetramethyloctadeca-4,8,12,16-tetraenyl)pentaerythritol]: the Viscosity in series [1] amounted to 0.78 Pa·s; in series [3] (shear velocity 10 1/s), 81 Pas · sec; in series [3] (shear velocity 105 1/s) it was 14 Pas · sec. For the same compound, in series [2], the “liquid crystal structure (SAXS peak value ratio)” value is on record as “reverse hexagonal liquid crystals”.

In the case of `CCCCCCCC/C=C\CCCCCCCC(=O)OCC(O)CO` (stereo not shown) [GMO, Glyceryl Monooleate], in series [4], the “state / solubility in dimethicone” value is “crystals were precipitated”.
